# Source: US6828139B2, “Production of replicative hepatitis C virus” (priority 2000, dated 2004)
# Structures can show the parent of a compound that is named as a salt.
# Test system: HCV (−) RNA synthesis
# Experiment: HCV (−) strand RNA synthesis in the inducible HCV replication system, RNase protection assay
# Assay type: cell-based, hepatitis C virus (genotype 1a, strain H77) in CV-1 cells
# Set-up: inhibitory effect on HCV (−) RNA synthesis: dose or concentration left out as unconfirmed
# Settings: for results on HCV (−) RNA synthesis with changed time of addition: drug given 0 and 12 hours before vTF7-3 infection, compared with 20 hours
Compound,results on HCV (−) RNA synthesis with changed time of addition,"inhibitory effect on HCV (−) RNA synthesis (ribavirin, added 20 hours prior to vTF7-3)","activity against HCV (−) strand synthesis (amantadine 1-100 μg/well, added 20 hours prior to vTF7-3 infection)"
NC(=O)c1ncn([C@@H]2O[C@H](CO)[C@@H](O)[C@H]2O)n1 [ribavirin],unchanged,No inhibitory effect,
"NC12CC3CC(CC(C3)C1)C2 [amantadine, Amantadine-HCl]",unchanged,,no activity
